Experimental data taken from ChEMBL document CHEMBL1250468, “Synthesis of aryl-heteroaryl ureas (AHUs) based on 4-aminoquinoline and their evaluation against the insulin-like growth factor receptor (IGF-1R)” (Bioorg Med Chem, 2010).

Target: Insulin-like growth factor 1 receptor (Homo sapiens, UniProt P08069)
Test: Inhibition of recombinant IGF1R by ELISA

Insulin-like growth factor 1 receptor, sequence (P08069 31-736 limits assumed): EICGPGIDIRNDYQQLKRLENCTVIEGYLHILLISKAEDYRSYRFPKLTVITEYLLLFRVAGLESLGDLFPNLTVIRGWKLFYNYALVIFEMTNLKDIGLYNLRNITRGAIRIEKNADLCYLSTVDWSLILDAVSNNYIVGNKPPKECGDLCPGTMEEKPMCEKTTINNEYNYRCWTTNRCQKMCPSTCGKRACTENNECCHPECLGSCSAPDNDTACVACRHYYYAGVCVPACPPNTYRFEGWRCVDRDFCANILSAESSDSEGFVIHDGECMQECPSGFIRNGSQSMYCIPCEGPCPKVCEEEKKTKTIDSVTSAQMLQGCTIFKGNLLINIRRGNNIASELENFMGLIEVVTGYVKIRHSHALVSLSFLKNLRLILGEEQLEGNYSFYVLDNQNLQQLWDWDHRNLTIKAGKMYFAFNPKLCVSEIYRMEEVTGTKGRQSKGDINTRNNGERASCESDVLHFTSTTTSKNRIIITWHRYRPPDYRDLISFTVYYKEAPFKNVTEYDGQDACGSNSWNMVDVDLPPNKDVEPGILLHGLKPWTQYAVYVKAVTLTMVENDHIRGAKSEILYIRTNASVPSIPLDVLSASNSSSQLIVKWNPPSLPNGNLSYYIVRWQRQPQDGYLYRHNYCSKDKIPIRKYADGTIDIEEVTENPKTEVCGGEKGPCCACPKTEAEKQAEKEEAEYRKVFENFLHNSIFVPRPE
Insulin-like growth factor 1 receptor, sequence (P08069 741-1367 limits assumed): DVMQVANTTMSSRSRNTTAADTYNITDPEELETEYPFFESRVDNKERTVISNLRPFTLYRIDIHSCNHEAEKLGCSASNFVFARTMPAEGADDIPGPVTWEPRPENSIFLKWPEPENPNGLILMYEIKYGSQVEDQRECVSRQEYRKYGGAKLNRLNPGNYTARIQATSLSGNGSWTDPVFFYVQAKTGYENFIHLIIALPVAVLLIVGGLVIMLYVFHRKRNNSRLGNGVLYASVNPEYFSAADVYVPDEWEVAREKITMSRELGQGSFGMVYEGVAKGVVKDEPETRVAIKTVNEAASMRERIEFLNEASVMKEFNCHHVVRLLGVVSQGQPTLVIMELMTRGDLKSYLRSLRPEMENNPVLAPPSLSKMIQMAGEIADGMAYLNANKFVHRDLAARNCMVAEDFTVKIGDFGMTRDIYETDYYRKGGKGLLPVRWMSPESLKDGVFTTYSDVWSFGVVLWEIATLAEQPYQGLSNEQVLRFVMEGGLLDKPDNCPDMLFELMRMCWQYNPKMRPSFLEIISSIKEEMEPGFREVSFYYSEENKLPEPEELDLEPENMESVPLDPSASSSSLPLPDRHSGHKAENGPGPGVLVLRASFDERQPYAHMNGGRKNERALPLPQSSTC

IC50 [µM] | SMILES
> 30 | COc1ccc(NC(=O)Nc2cc(C(F)(F)F)nc3ccccc23)cc1
28.1 | O=C(Nc1ccc(Cl)cc1)Nc1cc(C(F)(F)F)nc2ccccc12
6.7 | O=C(Nc1ccc(OC(F)(F)F)cc1)Nc1cc(C(F)(F)F)nc2ccccc12
27.1 | O=C(Nc1ccc([N+](=O)[O-])cc1)Nc1cc(C(F)(F)F)nc2ccccc12
19.3 | O=C(Nc1ccc(-c2ncccn2)cc1)Nc1cc(C(F)(F)F)nc2ccccc12
5.2 | Cc1cncc(Oc2ccc(NC(=O)Nc3cc(C(F)(F)F)nc4ccccc34)cc2)n1
14.9 | COc1ccc(Cl)cc1NC(=O)Nc1cc(Cl)nc2ccccc12
> 30 | COc1ccc(NC(=O)Nc2cc(Cl)nc3ccccc23)cc1Cl
> 30 | COc1ccc(NC(=O)Nc2cc(Cl)nc3ccccc23)cc1
21.1 | O=C(Nc1ccc(Cl)cc1)Nc1cc(Cl)nc2ccccc12
21.4 | O=C(Nc1ccc(OC(F)(F)F)cc1)Nc1cc(Cl)nc2ccccc12
> 30 | O=C(Nc1ccc(-c2ncccn2)cc1)Nc1cc(Cl)nc2ccccc12
> 30 | Cc1cncc(Oc2ccc(NC(=O)Nc3cc(Cl)nc4ccccc34)cc2)n1
> 30 | Cc1cc(NC(=O)Nc2ccc(Cl)cc2)c2ccccc2n1

More lines, now with the values behind:

SMILES | IC50 [µM]
O=C(Nc1cccc(-c2ncccn2)c1)Nc1cc(C(F)(F)F)nc2ccccc12 | > 30
O=C(Nc1cccc(-c2ncccn2)c1)Nc1cc(Cl)nc2ccccc12 | > 30
COc1ccc(Cl)cc1NC(=O)Nc1cc(=O)[nH]c2ccccc12 | 6.5
COc1ccc(Cl)cc1NC(=O)Nc1cc(C)nc2ncccc12 | 24.7
Cc1cncc(Oc2ccc(NC(=O)Nc3cc(C)nc4ncccc34)cc2)n1 | 12.5
COc1ccc(Cl)cc1NC(=O)Nc1cc(C)nc2c1CCCN2 | 20.5
COc1ccc(Cl)cc1NC(=O)Nc1cc(C)nc2cnccc12 | > 30
COc1cc(OC)c(NC(=O)Nc2cc(C)nc3cnccc23)cc1Cl | > 30
Cc1cc(NC(=O)Nc2ccc(-c3ncccn3)cc2)c2ccccc2n1 | > 30
Cc1cc(NC(=O)Nc2cccc(-c3ncccn3)c2)c2ccccc2n1 | > 30
Cc1cncc(Oc2ccc(NC(=O)Nc3cc(C)nc4ccccc34)cc2)n1 | 5.6
COc1ccc(Cl)cc1NC(=O)Nc1cc(C)nc2ccccc12 | 18.7
COc1ccc(NC(=O)Nc2cc(C)nc3ccccc23)cc1Cl | > 30
